Laboratory results published in US20260048051A1, “TREATMENT OF INFLAMMATORY BOWEL DISEASE” (Atomwise Inc., priority 2024, published 2026).

Experiments:
[1] = biological target: T1, TYK2-JH2 (Homo sapiens, UniProt P29597); assay: TYK2-JH2 HTRF binding assay (ligand efficiency); settings: calculated from binding-assay IC50 (Equation 1)
T1 construct: TYK JH2 enzyme mix (ChemPartner: CP20210818A-BV); purchased ChemPartner CP20210818A-BV
Experimental: The following example describes the TYK2-JH2 HTRF binding assay used to determine the ligand efficiency of the TYK2 inhibitors.
To calculate ligand efficiency, Equation 1 is applied: […]
in which IC50 comes from the binding assay used to determine compound potency.
TYK JH2 enzyme mix (ChemPartner: CP20210818A-BV), tracer (ChemPartner: CP-0029472-051) and mAb Anti-6HIS Tb cryptate Gold (Cisbio: Cat No. 61HI2TLA) mix were prepared in assay buffer (10 mM MgCl2, 20 mM HEPES pH 7.5, 0.01% Triton X-100, 1 mM DTT). Compounds diluted in DMSO (Final Concentrations 0.1 to 0.000005 [μM]) and enzyme mix (0.5 nM Final Concentration) were added to 384 well plates, briefly centrifuged and incubated at room temperature for 10 minutes. After incubation, tracer mix (Tracer-35 nM final concentration); (MAb Anti-6HIS Tb cryptate Gold-0.5× final)) was added, briefly centrifuged then incubate at room temperature 60 minutes. After incubation, plates were read by Envision TR-FRET (Ex340/Em495/520) protocol (PerkinElmer-Envision 2104 multilabel plate reader).

[2] = test system: IL-6 induced pSTAT3; assay: IL-6 induced pSTAT3 assay in TF-1 cells; type: cell-based; settings: Homo sapiens, read-out: Cellular selectivity (IL-6/pSTAT3)
Experimental: The following example describes the IL-6 induced pSTAT3 assay used to determine the cellular selectivity (IL-6/pSTAT3) of the TYK2 inhibitors.
TF-1 (ATCC®, CRL-2003™) cells were cultured in RPMI 1640 Medium, with GlutaMAX™ Supplement, HEPES for Cell Culture (Life Technologies, 72400047), 10% Fetal Bovine Serum (Life Technologies, 26400044), 2 ng/mL human recombinant GM-CSF (Life Technologies, PHC2013), 1 mM Sodium pyruvate (Life Technologies, 11360039), 1% MEM NEAA (Life Technologies, 11140-035), 1% Penicillin/Streptomycin (Life Technologies, 15140-122).
TF-1 (70×10^6) cells were starved overnight in T150 flasks (Opti-MEM™ I Reduced Serum Medium, no phenol red (Life Technologies, 11058-021), 1 mM Na pyruvate (Life Technologies, 11360039), 1% MEM NEAA (Life Technologies, 11140-035), and 1% Penicillin/Streptomycin (Life Technologies, 15140-122)) then seeded into 96-well TPP plates (150 000 cell/well) and incubated with test compounds (Final Concentration [nM]10000-0.05) for 30 minutes at 37° C. […] Stimulation was terminated by addition of lysis buffer (MSD K150SVD) and pSTAT3 detection was measured with Phospho-STAT3 (Tyr705) Kit MSD K150SVD)) according to manufacturer's instruction. Briefly, cell lysates were added to pre-blocked plates, sealed, and shake for 1 hour at room temperature. Plates were then washed and incubated with detection antibody for 1 hour at room temperature. After washing, Read Buffer was added, and plates were read on MSD instrument (Model 1300 MSD Quickplex SQ120).

[3] = test system: GM-CSF induced pSTAT5; assay: GM-CSF induced pSTAT5 assay in CellSensor irf1-bla TF-1 cells; type: cell-based; settings: GM-CSF 1 ng/mL; for IC50: Homo sapiens, read-out: Cellular selectivity (GM-CSF induced pSTAT5)
Experimental: The CellSensor irfl-bla TF-1 cell line (LifeTechnologies, K1657) was cultured in RPMI 1640 Medium (Invitrogen 72400-047), 10% Fetal Bovine Serum (Invitrogen, 26400044), 1 mM Sodium pyruvate (Life Technologies, 11360039), 1% MEM NEAA (Life Technologies, 11140-035), 2 ng/ml of human recombinant GM-CSF (Fisher, PHC2015), 1% Penicillin/Streptomycin (Life Technologies, 15140-122) and 5 µg/ml of Blasticidin (ThermoFisher, A1113903).
The cell line was seeded in a T75 flask at 13×10^6 cells/50 mL in starvation medium (Opti-MEM™ I Reduced Serum Medium, no phenol red (Life Technologies, 11058-021), 1 mM Na pyruvate (Life Technologies, 11360039), 1% MEM NEAA (Life Technologies, 11140-035), and 1% Penicillin/Streptomycin (Life Technologies, 15140-122)) for 16 hours at 37° C. under 5% CO2 the day before the assay.
For the assay, CellSensor irfl-bla TF-1 cells were seeded at 30 000 cells/32 μL (starvation medium)/well in a 384-well plate.
Compounds were added on the cells in 4 μL (starvation medium)/well at 10× the final concentration. They were incubated for 30 minutes at 37° C.
Human recombinant carrier-free GM-CSF (ThermoFisher, ref PHC2015) was added to the wells in 4 μL (starvation medium)/well at 10×. The final concentration was 1 ng/mL. Control wells without GM-CSF treatment were added. Plates were incubated for 5 hours at 37° C.
6× LiveBlazer-FRET substrate (Invitrogen, K1085) was added to the wells at 8 μL/well. The substrate was prepared shortly before use by mixing 6 μL of solution A and 60 μL of solution B to 934 μL of solution C. Plates were incubated for 2.5 hours at room temperature in the dark. The plates were read on an Envision (Perkin Elmer) with an excitation at a wavelength of 409 nm and two wavelengths for the emission 520 nm and 450 nm. The ratio between the […] emission was used to calculate the IC50s.
The IC50 for the inhibition of pSTAT5 was calculated with the XLfit software using the 4 Parameter Logistic Model or Sigmoidal Dose-Response Model (model 205).

[4] = Mouse plasma pharmacokinetics, PO 5 mg/kg; type: in vivo
Experimental: The following example describes the methods used to evaluate the pharmacokinetics of TYK2 inhibitors in vivo following dosing of a compound of the invention.
The pharmacokinetics of test compounds were evaluated in either male CD-1 mice or male C57BL/6 mice when administered by oral gavage and IV bolus injection. The animals were allowed free access to food and water before administration. The plasma samples were analyzed by LC-MS/MS and the concentration of test compound at each time point was determined by linear regression. Pharmacokinetic parameters were calculated from the plasma concentrations by non-compartmental modeling using WinNonlin 8.2.
Oral composition. To prepare a pharmaceutical composition for oral delivery, the test articles described herein were dissolved in DMSO and then mixed with necessary volume of PEG400 followed by […] in water or 50% Kolliphor HS 15 in saline to provide the final concentrations of 0.5 mg/mL or 1 mg/mL (Table 8). The resultant mixtures were suitable for oral administration.
The PK parameters measured in mouse plasma after treatment with TYK2 inhibitor compounds via PO (oral administration) at 5 mg/kg are summarized below in Tables 9-11.

T1 sequence (P29597 589-875 limits assumed): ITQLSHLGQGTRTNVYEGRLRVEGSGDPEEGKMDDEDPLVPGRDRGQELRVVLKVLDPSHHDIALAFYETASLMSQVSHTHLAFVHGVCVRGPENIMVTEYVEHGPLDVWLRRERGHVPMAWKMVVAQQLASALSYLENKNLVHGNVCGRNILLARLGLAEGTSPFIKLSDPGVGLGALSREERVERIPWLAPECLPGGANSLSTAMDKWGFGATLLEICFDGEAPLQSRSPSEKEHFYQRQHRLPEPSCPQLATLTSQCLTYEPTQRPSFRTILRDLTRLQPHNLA

CS(=O)(=O)c1cccnc1Nc1cc(Nc2ccc3c(n2)CCCC3N2CC3(COC3)C2)ncn1 (stereo in doubt) [Compound 5, (R)—N^4-(5-(2-oxa-6-azaspiro[3.3]heptan-6-yl)-5,6,7,8-tetrahydroquinolin-2-yl)-N^6-(3-(methylsulfonyl)pyridin-2-yl)pyrimidine-4,6-diamine]
Ligand Efficiency [1]: †† (††: 0.37-0.39) | IC50 [2]: 4 to 10 µM | IC50 [3]: > 10 µM | Half-life (t1/2) [4]: ††† (†††: >1.5) | Maximum plasma concentration (Cmax) [4]: ††† (†††: >1500) | Total systemic exposure (AUCinf) [4]: ††† (†††: >2000)

CC(c1ccc(Nc2cc(Nc3ncccc3S(C)(=O)=O)ncn2)nc1C(F)(F)F)N1CC2(COC2)C1 (stereo in doubt) [Compound 11, (R)—N^4-(5-(1-(2-oxa-6-azaspiro[3.3]heptan-6-yl)ethyl)-6-(trifluoromethyl)pyridin-2-yl)-N^6-(3-(methylsulfonyl)pyridin-2-yl)pyrimidine-4,6-diamine]
Ligand Efficiency [1]: †† (††: 0.37-0.39) | IC50 [2]: < 4 µM | IC50 [3]: > 10 µM | Half-life (t1/2) [4]: ††† (†††: >1.5) | Maximum plasma concentration (Cmax) [4]: †† (††: 800-1500) | Total systemic exposure (AUCinf) [4]: ††† (†††: >2000)

Cc1nc(Nc2cc(Nc3ncccc3S(C)(=O)=O)ncn2)ccc1[C@H](C)N1CC2(COC2)C1 (stereo in doubt) [Compound 12, N^4-(5-(1-(2-oxa-6-azaspiro[3.3]heptan-6-yl)ethyl)-6-methylpyridin-2-yl)-N^6-(3-(methylsulfonyl)pyridin-2-yl)pyrimidine-4,6-diamine]
Ligand Efficiency [1]: ††† (†††: >0.39) | IC50 [2]: < 4 µM | IC50 [3]: < 4 µM | Half-life (t1/2) [4]: † (†: <1.0) | Maximum plasma concentration (Cmax) [4]: ††† (†††: >1500) | Total systemic exposure (AUCinf) [4]: †† (††: 1000-2000)

C[C@H](c1ccc(Nc2cc(Nc3ncccc3S(C)(=O)=O)ncn2)nc1)N1CC2(COC2)C1 [Compound 17, (R)—N^4-(5-(1-(2-oxa-6-azaspiro[3.3]heptan-6-yl)ethyl)pyridin-2-yl)-N^6-(3-(methylsulfonyl)pyridin-2-yl)pyrimidine-4,6-diamine]
Ligand Efficiency [1]: †† (††: 0.37-0.39) | IC50 [2]: > 10 µM | Cellular selectivity (GM-CSF induced pSTAT5) [3]: ††††

CC1(Nc2ccc(Nc3cc(Nc4ncccc4S(C)(=N)=O)ncn3)nc2)COC1 (centres unmarked) [Compound 73, N^4-(5-((3-methyloxetan-3-yl)amino)pyridin-2-yl)-N^6-(3-(S-methylsulfonimidoyl)pyridin-2-yl)pyrimidine-4,6-diamine]
Ligand Efficiency [1]: ††† (†††: >0.39)

CC1(Nc2cnc(Nc3cc(Nc4ncccc4S(C)(=O)=O)ncn3)cn2)COC1 [Compound 74, N^4-(5-(3-methyloxetan-3-ylamino)pyrazin-2-yl)-N^6-(3-(methylsulfonyl)pyridin-2-yl)pyrimidine-4,6-diamine]
Ligand Efficiency [1]: ††† (†††: >0.39)

CC(c1ccc(Nc2ncnc(Nc3ncccc3S(C)(=O)=O)c2F)nc1)N1CC2(COC2)C1 (centres unmarked) [Compound 75, N^4-(5-(1-(2-oxa-6-azaspiro[3.3]heptan-6-yl)ethyl)pyridin-2-yl)-5-fluoro-N^6-(3-(methylsulfonyl)pyridin-2-yl)pyrimidine-4,6-diamine]
Ligand Efficiency [1]: † (†: < 0.37)

COc1ccnc(Nc2cc(Nc3ccc(C(C)N4CC5(COC5)C4)cn3)ncn2)c1S(C)(=O)=O (centres unmarked) [Compound 76, N^4-(5-(1-(2-oxa-6-azaspiro[3.3]heptan-6-yl)ethyl)pyridin-2-yl)-N^6-(4-methoxy-3-(methylsulfonyl)pyridin-2-yl)pyrimidine-4,6-diamine]
Ligand Efficiency [1]: † (†: < 0.37)

Cc1cc(Nc2cc(Nc3ncccc3S(C)(=O)=O)ncn2)nnc1C(C)N1CC2(COC2)C1 (centres unmarked) [Compound 77, N^4-(6-(1-(2-oxa-6-azaspiro[3.3]heptan-6-yl)ethyl)-5-methylpyridazin-3-yl)-N^6-(3-(methylsulfonyl)pyridin-2-yl)pyrimidine-4,6-diamine]
Ligand Efficiency [1]: †† (††: 0.37-0.39)

CC(c1ccc(Nc2cc(Nc3ncc(C4COC4)cc3S(C)(=O)=O)ncn2)nc1)N1CC2(COC2)C1 (centres unmarked) [Compound 78, N^4-(5-(1-(2-oxa-6-azaspiro[3.3]heptan-6-yl)ethyl)pyridin-2-yl)-N^6-(3-(methylsulfonyl)-5-(oxetan-3-yl)pyridin-2-yl)pyrimidine-4,6-diamine]
Ligand Efficiency [1]: † (†: < 0.37)

CS(=O)(=O)c1ccccc1Nc1cc(Nc2ccc(C(=O)NC3COC3)cn2)ncn1 [Compound 79, 6-((6-((2-(methylsulfonyl)phenyl)amino)pyrimidin-4-yl)amino)-N-(oxetan-3-yl)nicotinamide]
Ligand Efficiency [1]: †† (††: 0.37-0.39)

CS(=O)(=O)c1ccccc1Nc1cc(Nc2ccc(NC3COC3)cn2)ncn1 [Compound 80, N^4-(2-(methylsulfonyl)phenyl)-N^6-(5-(oxetan-3-ylamino)pyridin-2-yl) pyrimidine-4,6-diamine]
Ligand Efficiency [1]: † (†: < 0.37)
